Experimental data from article PMC7770212 (Journal of Psychopharmacology (Oxford, England), 2020).

Experiments:
[1] = test system: striatal dopamine D2 receptors; details: 0.5 mg/kg/day subcutaneous delivery; ref Kapur et al., 2003; cited from earlier work
psychotic-like rats = assay: Pilot study: continuous HAL into the lateral ventricle; format: in vivo, rat; details: data not shown
AMPH-sensitized rats = assay: Pre-pulse inhibition; format: in vivo, rat; details: HAL 0.1 mg/kg/day i.c.v. mini pump, day 7; versus AMPH-VEH

O=C(CCCN1CCC(O)(c2ccc(Cl)cc2)CC1)c1ccc(F)cc1 [HAL, Haloperidol]
striatal dopamine D2 receptor occupancy [1]: 73% | alleviation of psychotic-like symptoms (psychotic-like rats; 0.1 mg/kg/day continuous i.c.v. versus 0.01 or 0.03 mg/kg/day): significantly more effective | extrapyramidal side effects (psychotic-like rats; 0.1 mg/kg/day continuous i.c.v.): without causing extrapyramidal side effects | PPI of the acoustic startle response (AMPH-sensitized rats): clearly improved PPI
